Results on 15 molecules are retold here after patent publication US5994342A, “3-(substituted methyl)-4-oxa-1-azabicyclo[3.2.0]heptan-7-one derivatives useful as antitumor agents” (priority 1994, dated 1999).

Values after ≈ are worked out from the molar mass of the structure shown. Structures can show the parent of a compound that is named as a salt.

The test system of one series is KB cells. In words: In vitro KB cell cytotoxicity assay (crystal violet). It is filed as cell-based. The conditions noted are these: Homo sapiens, 72 h, 3 days culture, read-out: KB Cell Cytotoxicity TD50. Here is the method:
In Vitro KB Cell Cytotoxicity Assay In vitro KB cell cytoxocity assay was done by modification of the crystal violet assay ([…] et al., Anal Biochem., 159, 109-113 (1986). KB cells were cultivated in Eagles minimum essential medium supplemented with 10% calf serum and incubated at 37° C. in a humidified 5% CO2 atmosphere to prepare a cell stock. Cells were counted using a neubauer hemocytometer and seeded in 96 well plates at 100 μl of 3×10^4 cells/ml and cultured for one day. […] Control wells were identical except that test compound was absent. These were cultured for three days. Then the cells were fixed with addition of 20 μl of 25% glutaraldehyde for 15 minutes, washed with water and dried. Then stained with 100 μl of 0.05% crystal violet for 15 minutes, washed with water and dried. The wells are eluted with […] of 0.05M NaH2 PO4 /ethanol (1:1 v/v) and read at OD540 on a multiscan spectrophotometer. Inhibition value of cell growth was calculated based on optical density using the following equation; [formula] TD50 values were calculated from linear regression ines of the log-logit plot.

For the next series, the system named is Sarcoma 180. As to the kind of experiment: In vivo antitumor activity against Sarcoma 180. Set-up: species or system male ICR mice. The note with it: i.p., days 1, 5 and 9. As to the method:
In Vivo Antitumor Activity Against Sarcoma 180
The compounds of general formula (I) were tested in vivo against Sarcoma 180 xenografted tumor to mice as illustrated herein after.
Sarcoma 180, 5×10^6 cells were inoculated by S.C. to male ICR mice (6 week old) on day 0. Drugs were administered on days 1, 5 and 9. Mice were killed and tumor weight was measured on day 12 after transplantation. The percentage inhibition of tumor growth was calculated from the mean tumor weight of the treated group compared with that of the control group. Number of mice used in each group was between 6 to 7.

[1] abbreviates: Mus musculus, Sarcoma-180, ip, 288 h, 25 mg/kg/day, tumor s.c., tumor weight day 12, read-out: % Inhibition of tumor growth.
[2] abbreviates: Mus musculus, Sarcoma-180, ip, 288 h, 50 mg/kg/day, tumor s.c., tumor weight day 12, read-out: % Inhibition of tumor growth.
[3] abbreviates: Mus musculus, Sarcoma-180, ip, 288 h, 100 mg/kg/day, tumor s.c., tumor weight day 12, read-out: % Inhibition of tumor growth.
[4] abbreviates: Mus musculus, Sarcoma-180, ip, 288 h, 40 mg/kg/day, tumor s.c., tumor weight day 12, read-out: % Inhibition of tumor growth.
Where [5] appears, read: Mus musculus, Sarcoma-180, ip, 288 h, 80 mg/kg/day, tumor s.c., tumor weight day 12, read-out: % Inhibition of tumor growth.
The mark [6] stands for this setting: Mus musculus, Sarcoma-180, ip, 288 h, 12.5 mg/kg/day, tumor s.c., tumor weight day 12, read-out: % Inhibition of tumor growth.

In the case of `CC(C)[C@H](N)C(=O)OC[C@H]1CN2C(=O)C[C@@H]2O1.Cl` (mixture of isomers) [Example 54B, (3RS,5SR)-3-(L-2-Amino-3-methylbutyryl)oxymethyl-4-oxa-1-azabicyclo[3.2.0]heptan-7-one hydrochloride], the IC50 in the series with KB cells worked out at 1.9 µg/mL. Moreover, the “Mortality in 12 days” value in the series with Sarcoma 180 (25 mg/kg/day), in the series with Sarcoma 180 (50 mg/kg/day) and in the series on Sarcoma 180 (100 mg/kg/day) was 0/6 each time. In addition, the inhibition in vivo at 25 mg/kg in the series with Sarcoma 180 (setting [1]) turned out to be 28.5%. Moreover, the inhibition in vivo at 50 mg/kg in the series with Sarcoma 180 (setting [2]) worked out at 53.8%. Further, the inhibition in vivo at 100 mg/kg in the series on Sarcoma 180 (setting [3]) amounted to 84.3%.
`O=C(NC[C@@H]1CN2C(=O)C[C@H]2O1)C1CCCCC1` (racemic) [Example 6, (3RS,5RS)-3-(N-Cyclohexylcarbonylaminomethyl)-4-oxa-1-azabicyclo[3.2.0]heptan-7-one]: in the series on KB cells, the IC50 came out at 0.073 µg/mL (≈ 0.289 µM). For the same molecule, the “Mortality in 12 days” value in the series on Sarcoma 180 (20 mg/kg/day), with Sarcoma 180 (40 mg/kg/day) and in the series on Sarcoma 180 (80 mg/kg/day) was 0/6 each time. In addition, the inhibition in vivo at 20 mg/kg in the series on Sarcoma 180 (Mus musculus, Sarcoma-180, ip, 288 h, 20 mg/kg/day, tumor s.c., tumor weight day 12, read-out: % Inhibition of tumor growth) was determined as 32.1%. In addition, the inhibition in vivo at 40 mg/kg with Sarcoma 180 (setting [4]) stood at 35.7%. The inhibition in vivo at 80 mg/kg with Sarcoma 180 (setting [5]) was 43.3%.
For `N[C@H](CCC(=O)OC[C@H]1CN2C(=O)C[C@@H]2O1)C(=O)O` (mixture of isomers) [Example 68B, (3RS,5SR)-3-(D-4-Amino-4-carboxybutyryl)oxymethyl-4-oxa-1-azabicyclo[3.2.0]heptan-7-one], the IC50 in the series on KB cells was 0.189 µg/mL. Besides, the results for the “Mortality in 12 days” value in the series with Sarcoma 180 (12.5 mg/kg/day), in the series with Sarcoma 180 (25 mg/kg/day) and in the series on Sarcoma 180 (50 mg/kg/day) were 0/6, 0/6 and 3/6, respectively. The inhibition in vivo at 12.5 mg/kg in the series with Sarcoma 180 (setting [6]) came out at 49.1%. The inhibition in vivo at 25 mg/kg in the series on Sarcoma 180 (setting [1]) stood at 69.7%. For the same molecule, the inhibition in vivo at 50 mg/kg in the series with Sarcoma 180 (setting [2]) worked out at 80.3%.
As to `CC(C)[C@H](NC(=O)[C@@H](N)CC(=O)O)C(=O)OCC1CN2C(=O)CC2O1` (stereo partly drawn) [Example 57B, (3RS,5RS)-3-N-[L-2-N-(L-2-Amino-3-carboxypropanoyl)amino-3-methylbutyryl]oxymethyl-4-oxa-1-azabicyclo[3.2.0]heptan-7-one], the IC50 in the series on KB cells worked out at 1.54 µg/mL (≈ 4.31 µM). Also, the “Mortality in 12 days” value with Sarcoma 180 (12.5 mg/kg/day) is 0/6; in the series on Sarcoma 180 (25 mg/kg/day) it was 0/6; in the series on Sarcoma 180 (50 mg/kg/day), 1/6. Also, in the series with Sarcoma 180 (setting [6]), the inhibition in vivo at 12.5 mg/kg was found to be 40.9%. In the series on Sarcoma 180 (setting [1]), the inhibition in vivo at 25 mg/kg amounted to 58.1%. The inhibition in vivo at 50 mg/kg with Sarcoma 180 (setting [2]) was found to be 83.1%.
In the case of `CC(C)[C@H](N)C(=O)NCC(=O)NC[C@@H]1CN2C(=O)C[C@H]2O1.Cl` (mixture of isomers) [Example 45B, (3RS,5RS)-3-[N-(L-2-amino-3-methylbutyryl)aminoacetyl]aminomethyl-4-oxa-1-azabicyclo[3.2.0]heptan-7-one hydrochloride], in the series with KB cells, the IC50 was 1.97 µg/mL. Also, the “Mortality in 12 days” value with Sarcoma 180 (25 mg/kg/day) and with Sarcoma 180 (50 mg/kg/day) was 0/6 each time. Also, the inhibition in vivo at 25 mg/kg in the series with Sarcoma 180 (setting [1]) amounted to 39.3%. In addition, the inhibition in vivo at 50 mg/kg in the series on Sarcoma 180 (setting [2]) was determined as 81.7%.
Consider `CCN(CC)C(=O)NC[C@@H]1CN2C(=O)C[C@H]2O1` (racemic) [Example 33, (3RS,5RS)-3-[N-(N,N-Diethylcarbamyl)]aminomethyl-4-oxa-1-azabicyclo[3.2.0]heptan-7-one], for which, in the series on KB cells, the IC50 amounted to 0.246 µg/mL (≈ 1.02 µM). The “Mortality in 12 days” value in the series on Sarcoma 180 (22.5 mg/kg/day), in the series with Sarcoma 180 (45 mg/kg/day) and in the series on Sarcoma 180 (90 mg/kg/day) was 0/6 each time. Further, the inhibition in vivo at 22.5 mg/kg with Sarcoma 180 (Mus musculus, Sarcoma-180, ip, 288 h, 22.5 mg/kg/day, tumor s.c., tumor weight day 12, read-out: % Inhibition of tumor growth) was 46.6%. Further, the inhibition in vivo at 45 mg/kg in the series with Sarcoma 180 (Mus musculus, Sarcoma-180, ip, 288 h, 45 mg/kg/day, tumor s.c., tumor weight day 12, read-out: % Inhibition of tumor growth) is 66.2%. Also, in the series on Sarcoma 180 (Mus musculus, Sarcoma-180, ip, 288 h, 90 mg/kg/day, tumor s.c., tumor weight day 12, read-out: % Inhibition of tumor growth), the inhibition in vivo at 90 mg/kg is 74.5%.
Turning to `Cl.NCC(=O)OC[C@H]1CN2C(=O)C[C@@H]2O1` (racemic) [Example 39, (3RS,5SR)-3-(Aminoacetyl)oxymethyl-4-oxa-1-azabicyclo[3.2.0]heptan-7-one hydrochloride], the IC50 in the series on KB cells was 0.613 µg/mL. Further, the “Mortality in 12 days” value with Sarcoma 180 (12.5 mg/kg/day), with Sarcoma 180 (25 mg/kg/day) and in the series on Sarcoma 180 (50 mg/kg/day) was 0/6 in each case. The inhibition in vivo at 12.5 mg/kg in the series with Sarcoma 180 (setting [6]) turned out to be 41.9%. In addition, the inhibition in vivo at 25 mg/kg with Sarcoma 180 (setting [1]) amounted to 56.7%. Further, the inhibition in vivo at 50 mg/kg with Sarcoma 180 (setting [2]) is 76.7%.
On to `COc1ccc(S(=O)(=O)NC[C@H]2CN3C(=O)C[C@@H]3O2)cc1` (relative stereo) [Example 38, (3RS,5RS)-3-N-(4-Methoxybenzenesulfonyl)aminomethyl-4-oxa-1-azabicyclo[3.2.0]heptan-7-one], for which the IC50 in the series on KB cells turned out to be 0.158 µg/mL (≈ 0.506 µM). Moreover, the “Mortality in 12 days” value in the series with Sarcoma 180 (25 mg/kg/day) was 0/6; in the series with Sarcoma 180 (50 mg/kg/day) it was 0/6; with Sarcoma 180 (100 mg/kg/day), 1/6. The inhibition in vivo at 25 mg/kg with Sarcoma 180 (setting [1]) came out at 26.5%. Also, in the series with Sarcoma 180 (setting [2]), the inhibition in vivo at 50 mg/kg stood at 55.4%. The inhibition in vivo at 100 mg/kg with Sarcoma 180 (setting [3]) amounted to 72%.
In the case of `N[C@@H](CC(=O)O)C(=O)NCC(=O)NCC1CN2C(=O)CC2O1` (stereo partly drawn) [Example 46B, (3RS,5RS)-3-N-[N-(L-2-Amino-3-carboxypropanoyl)aminoacetyl]aminomethyl-4-oxa-1-azabicyclo[3.2.0]heptan-7-one], the IC50 in the series on KB cells was found to be 2.63 µg/mL (≈ 8.37 µM). Besides, the “Mortality in 12 days” value in the series on Sarcoma 180 (12.5 mg/kg/day) was 0/6; in the series on Sarcoma 180 (25 mg/kg/day), 0/6; in the series on Sarcoma 180 (50 mg/kg/day) it was 1/6. Besides, the inhibition in vivo at 12.5 mg/kg in the series with Sarcoma 180 (setting [6]) stood at 44.7%. The inhibition in vivo at 25 mg/kg in the series with Sarcoma 180 (setting [1]) is 55.7%. Moreover, the inhibition in vivo at 50 mg/kg with Sarcoma 180 (setting [2]) is 76.9%.
For `CCCCCC(=O)NC[C@@H]1CN2C(=O)C[C@H]2O1` (racemic) [Example 4, (3RS,5RS)-3-(N-Hexanoylaminomethyl)-4-oxa-1-azabicyclo[3.2.0]heptan-7-one], the IC50 with KB cells was found to be 0.312 µg/mL (≈ 1.3 µM). For the same molecule, the “Mortality in 12 days” value with Sarcoma 180 (100 mg/kg/day) is listed as 0/6. The inhibition in vivo at 100 mg/kg in the series with Sarcoma 180 (setting [3]) stood at 49.4%.
In the same order, the values of `N[C@H](CCC(=O)NCC1CN2C(=O)CC2O1)C(=O)O` (stereo partly drawn) [Example 69B, (3RS,5RS)-3-N-(D-4-Amino-4-carboxybutyryl)aminomethyl-4-oxa-1-azabicyclo[3.2.0]heptan-7-one] are 2.47 µg/mL (≈ 9.11 µM), 0/6 and 37.8%.
In the same order, the values of `O=C1C[C@H]2O[C@H](CNC(=O)C(F)(F)F)CN12` (racemic) [Example 7, (3RS,5RS)-3-[N-(Trifluoroacetyl)aminomethyl]-4-oxa-1-azabicyclo[3.2.0]heptan-7-one] are 0.205 µg/mL (≈ 0.861 µM), 2/6 and 39.8%.
Take `Cl.NC[C@@H]1CN2C(=O)C[C@H]2O1` (racemic) [Example 22, (3RS,5RS)-3-aminomethyl-4-oxa-1-azabicyclo[3.2.0]heptan-7-one hydrochloride]: the IC50 with KB cells came out at 0.344 µg/mL. The “Mortality in 12 days” value with Sarcoma 180 (40 mg/kg/day) and in the series with Sarcoma 180 (80 mg/kg/day) was 0/6 each time. For the same molecule, the inhibition in vivo at 40 mg/kg with Sarcoma 180 (setting [4]) worked out at 26.7%. Further, in the series on Sarcoma 180 (setting [5]), the inhibition in vivo at 80 mg/kg amounted to 40.3%.
In the case of `N[C@@H](Cc1ccccc1)C(=O)NCC1CN2C(=O)CC2O1` (stereo partly drawn) [Example 63B, (3RS,5RS)-3-N-(L-2-Amino-3-phenylpropanoyl)aminomethyl-4-oxa-1-azabicyclo[3.2.0]heptan-7-one hydrochloride], the IC50 in the series on KB cells worked out at 0.573 µg/mL. Further, the “Mortality in 12 days” value in the series on Sarcoma 180 (50 mg/kg/day) and in the series with Sarcoma 180 (100 mg/kg/day) was 0/6 each time. Also, the inhibition in vivo at 50 mg/kg in the series with Sarcoma 180 (setting [2]) is 50.3%. Further, the inhibition in vivo at 100 mg/kg in the series on Sarcoma 180 (setting [3]) came out at 57.6%.
For `CS(=O)(=O)NC[C@H]1CN2C(=O)C[C@H]2O1` (racemic) [Example 35, (3RS,5RS)-3-(N-Methanesulfonylaminomethyl)-4-oxa-1-azabicyclo[3.2.0]heptan-7-one], the IC50 with KB cells was found to be 0.198 µg/mL (≈ 0.899 µM). In the series with Sarcoma 180 (100 mg/kg/day), the “Mortality in 12 days” value was 1/6. In addition, the inhibition in vivo at 100 mg/kg in the series with Sarcoma 180 (setting [3]) is 64.6%.
